# Marks after values point to notes of the source that are not given here.
# Tested on: IKr ion currents
# Assay: First validation: ECG repolarization changes (QTc, ERDc, LRDc) on sotalol versus baseline
# Assay type: in vivo
# Settings: median (standard deviation); for ERDc 50%, Δ on drug - baseline / LRDc 50%, Δ on drug - baseline: individual correction formula
# Description: FIG. 2 illustrates one embodiment of a such a method for assessing repolarization abnormalities. At least two repolarization signals are identified 30 from a set of ECG signals. The ECG signals may be obtained from a variety of ECG capture devices as discussed above. The ECG signals may be obtained in “real-time” from a subject, or the ECG signals may be obtained from a database (which should be understood to include memory devices) storing previously obtained ECG signals.
# Once the at least two repolarization signals are identified 30, principal component analysis 32 can be done on the repolarization signals to extract eigenvectors ev1 and ev2. Principal component analysis (PCA) is a way of identifying patterns in data, and is especially useful in dealing with multi-dimensional data, such as multiple repolarization signals from multiple ECG leads. PCA analysis is a mathematical technique which those skilled in the art will be familiar with, and results in a matrix of eigenvectors. As a summary of the PCA analysis, first, the mean is subtracted from each of the data dimensions. This produces a data set whose mean is zero. Next, a covariance matrix is calculated for the data. If the data has n-dimensions, then the covariance matrix will be a square n-by-n matrix. Mathematical constructs called eigenvectors and eigenvalues may be calculated for a square matrix, and so next, a set of eigenvectors and eigenvalues are calculated for the covariance matrix. For the n-by-n covariance matrix, there will be n eigenvectors. The eigenvectors are orthogonal to each other, and each has a corresponding eigenvalue. The eigenvectors can be thought of as a representation of the multi-dimension data. The eigenvector with the highest eigenvalue is the principal component of the data set. The eigenvectors may be sorted from highest to lowest, and the eigenvectors with the two highest eigenvalues may be referred to as ev1 and ev2 respectively.
# Once the PCA analysis 32 has been completed, a maximum vector MV may be determined 34 based on a transformed ECG signal in a preferential plane defined by ev1 and ev2. Mathematically, MV is detected at time t=TMV, where equation 1 is fulfilled: MV=max ? {right arrow over (VECG)}(t)−{right arrow over (VECG)}(TQ) ? , Equation 1)
# Referring again to FIG. 2, once the maximum vector MV has been determined, a repolarization duration which is based on the maximum vector MV is determined 36. The repolarization duration may be determined 36 by taking an arbitrary threshold percentage of the magnitude of MV and projecting the threshold magnitude relative to an endpoint of MV to determine a beginning point and an ending point on the transformed ECG signal in the plane defined by ev1 and ev2. An example of this process can be seen graphically in FIG. 3. In the example of FIG. 3, the arbitrary threshold percentage of the magnitude of MV is 30%. This threshold magnitude of 30% MV (or 30% Vmax) is projected in a circle or arc 38 around the endpoint of MV, which is labeled Vmax. Where the projected threshold 38 crosses 40 the transformed ECG signal 42 (or T-loop) on a first side of the endpoint of MV, we can define a beginning point. Since the data points are samples in time, the beginning point may be designated as the closest true data point 44 to the crossing point 40. Alternatively, the beginning point may be an interpolated data point based on the two closest data points 44 and 46. Where the projected threshold 38 crosses 48 the transformed ECG signal 42 (or T-loop) on a second side of the endpoint of MV, we can define an ending point. Since the data points are samples in time, the ending point may be designated as the closest true data point 50 to the crossing point 48. Alternatively, the ending point may be an interpolated data point based on the two closest data points 50 and 52. […]
compound,measurement,setting,value
CC(C)NCC(O)c1ccc(NS(C)(=O)=O)cc1 (stereo not drawn) [sotalol],"QTc L II, Δ on drug - baseline",42′-48′ after dosing,4.0(16) ms
same,"ERDc 50%, Δ on drug - baseline",42′-48′ after dosing,5.1(14)* ms
same,"LRDc 50%, Δ on drug - baseline",42′-48′ after dosing,1.1(6.2)* ms
same,"QTc L II, Δ on drug - baseline",48′-54′ after dosing,4.1(16) ms
same,"ERDc 50%, Δ on drug - baseline",48′-54′ after dosing,4.9(14)* ms
same,"LRDc 50%, Δ on drug - baseline",48′-54′ after dosing,0.6(5.2)* ms
same,"QTc L II, Δ on drug - baseline",54′-1 h after dosing,4.3(16)* ms
same,"ERDc 50%, Δ on drug - baseline",54′-1 h after dosing,4.4(12) ms
same,"LRDc 50%, Δ on drug - baseline",54′-1 h after dosing,0.3(6.5) ms
same,"QTc L II, Δ on drug - baseline",1 h-1 h 6′ after dosing,13(17)* ms
same,"ERDc 50%, Δ on drug - baseline",1 h-1 h 6′ after dosing,9.5(16)** ms
same,"LRDc 50%, Δ on drug - baseline",1 h-1 h 6′ after dosing,4.0(5.9)** ms
